From patent publication US20040106682A1, “Novel benzylideneamino guanidines and their uses as ligands to the melnocortin receptors” (priority 2001, published 2004)
Where a name gives a salt, the structure may show the parent alone. Values belong to the compound of their own block, whether it stands above or below them.

Columns and labels:
[1] = target: T1, recombinant human MC5 receptor (Homo sapiens, UniProt P33032); experiment: Affinity for the MC5-receptors, 125I-NDP-αMSH binding assay; details: Sf9 or COS cells transfected with recombinant human MC5, displacement of 125I-NDP-MSH, nb = non-binding, i.e. no affinity; for Ki: read-out: Affinity for MC-receptors, Ki, MC5
T1 construct: expressed in transfected cells; host or cells: Sf9 insect cells or COS cells
T1 sequence (P33032 whole entry): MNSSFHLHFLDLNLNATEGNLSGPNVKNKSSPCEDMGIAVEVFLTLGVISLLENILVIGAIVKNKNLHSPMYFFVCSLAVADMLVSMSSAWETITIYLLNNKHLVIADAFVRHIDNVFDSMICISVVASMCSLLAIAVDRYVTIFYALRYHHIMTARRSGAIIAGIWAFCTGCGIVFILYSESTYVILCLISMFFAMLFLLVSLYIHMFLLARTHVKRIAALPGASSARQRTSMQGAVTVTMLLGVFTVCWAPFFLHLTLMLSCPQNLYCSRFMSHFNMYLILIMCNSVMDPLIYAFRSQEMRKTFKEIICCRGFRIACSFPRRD
Experimental: (§1) Test 2. Affinity for the MC3-receptors, the MC4receptors and the MC5-receptors
(§2) The binding assays were carried out essentially as described by Szardenings et al., J. Biol. Chem. 1997; 272; 27943-27948 and Schiöth et al., FEBS Lett. 1997; 410; 223-228 using I^125-NDP-αMSH as ligand.
(§3) Essentially, the affinity of the compounds for the different melanocortin receptors were determined by using either insect cells (Sf9) or COS cells, which were transfected with recombinant human MC3, MC4 or MC5 receptors. For the determination of the affinity for the MC1 receptor, B16 mouse melanoma cells were used, which endogenously express the (mouse) MC1 receptor.
(§4) The compounds were tested at different concentrations for their ability to displace a ^125I-labelled NDP-MSH from the respective receptor. Incubation was performed in 96-well plates, using 50,000 cells/well (Sf9 or COS cells) up to 200,000 cells/well (mouse melanoma cells).
(§5) The test compound or standard (NDP-MSH) was added in an appropriate concentration (generally between 10^−4 M and 10^−12 M) together with labelled tracer (approx. 50,000 cpm/well) and incubated for 2 hours (at room temperature for Sf9 cells and at +37° C. for COS cells and mouse melanoma cells).
(§6) After the incubation, the cells were washed twice to get rid of the excess tracer and compound, and the cells were lysed with 0.1 M NaOH. The lysate was counted in a gamma-counter, binding was calculated and the affinity determined.

[2] = target: T2, recombinant human MC3 receptor (Homo sapiens, UniProt P41968); experiment: Affinity for the MC3-receptors, 125I-NDP-αMSH binding assay; details: Sf9 or COS cells transfected with recombinant human MC3, displacement of 125I-NDP-MSH, nb = non-binding, i.e. no affinity; for Ki: read-out: Affinity for MC-receptors, Ki, MC3
T2 construct: expressed in transfected cells; host or cells: Sf9 insect cells or COS cells
T2 sequence (P41968 whole entry): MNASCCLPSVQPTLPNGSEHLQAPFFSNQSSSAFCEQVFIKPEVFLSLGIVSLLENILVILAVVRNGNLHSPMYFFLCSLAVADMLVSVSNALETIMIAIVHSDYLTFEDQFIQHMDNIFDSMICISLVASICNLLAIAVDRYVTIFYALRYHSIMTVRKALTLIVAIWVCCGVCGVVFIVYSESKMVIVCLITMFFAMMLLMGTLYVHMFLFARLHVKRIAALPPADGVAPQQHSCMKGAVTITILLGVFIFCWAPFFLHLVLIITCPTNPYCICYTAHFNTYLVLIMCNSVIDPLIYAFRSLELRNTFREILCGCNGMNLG
Experimental: as §1, §2, §3, §4, §5, §6

[3] = target: T3, recombinant human MC4 receptor (Homo sapiens, UniProt P32245); experiment: Affinity for the MC4-receptors, 125I-NDP-αMSH binding assay; details: Sf9 or COS cells transfected with recombinant human MC4, displacement of 125I-NDP-MSH, nb = non-binding, i.e. no affinity; for Ki: read-out: Affinity for MC-receptors, Ki, MC4
T3 construct: expressed in transfected cells; host or cells: Sf9 insect cells or COS cells
T3 sequence (P32245 whole entry): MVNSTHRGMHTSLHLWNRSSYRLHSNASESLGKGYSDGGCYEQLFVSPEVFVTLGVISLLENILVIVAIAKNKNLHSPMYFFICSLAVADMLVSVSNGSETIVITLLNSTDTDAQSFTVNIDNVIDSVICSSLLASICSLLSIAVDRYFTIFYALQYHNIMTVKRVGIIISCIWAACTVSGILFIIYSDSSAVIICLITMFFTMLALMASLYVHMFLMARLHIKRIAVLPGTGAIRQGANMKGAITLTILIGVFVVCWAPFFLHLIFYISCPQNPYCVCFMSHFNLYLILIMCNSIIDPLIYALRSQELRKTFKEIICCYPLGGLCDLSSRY
Experimental: as §1, §2, §3, §4, §5, §6

MC1 receptor = target: T4, MC1 receptor (Mus musculus, UniProt Q01727); experiment: Affinity for the MC1-receptor, 125I-NDP-αMSH binding assay; details: B16 mouse melanoma cells endogenously expressing mouse MC1, displacement of 125I-NDP-MSH, nb = non-binding, i.e. no affinity; for Ki: read-out: Affinity for MC-receptors, Ki, MC1
T4 construct: B16 mouse melanoma cells were used, which endogenously express the (mouse) MC1 receptor; endogenous in cells; host or cells: B16 mouse melanoma cells
T4 sequence (Q01727 whole entry): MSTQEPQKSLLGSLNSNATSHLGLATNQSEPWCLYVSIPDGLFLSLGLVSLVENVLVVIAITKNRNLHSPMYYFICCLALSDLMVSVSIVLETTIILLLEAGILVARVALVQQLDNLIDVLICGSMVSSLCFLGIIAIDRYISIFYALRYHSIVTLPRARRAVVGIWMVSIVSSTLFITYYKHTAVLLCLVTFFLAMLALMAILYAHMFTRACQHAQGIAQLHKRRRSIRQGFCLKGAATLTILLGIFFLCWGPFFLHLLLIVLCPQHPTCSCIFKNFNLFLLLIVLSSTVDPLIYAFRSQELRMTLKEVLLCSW
Experimental: Test 1. Affinity for the MC1-receptor
The binding assay was carried out essentially as described by Lunec et al., Melanoma Res. 1992; 2; 5-12 using I^125-NDP-αMSH as ligand.
as §3, §4, §5, §6

melanocortin receptors = experiment: Affinity/activity on melanocortin receptors (general statements); assay type: binding; details: statement in words, receptor subtype not specified

Structure (SMILES): N=C(N)NN=Cc1cccc(Cl)c1I [1:1, N-(3-Chloro-2-Iodobenzylideneamino)guanidine]
Ki [1]: 4.9 µM | Ki [2]: 5.8 µM | Ki [3]: 0.01 µM | Ki (MC1 receptor): 0.5 µM

Structure (SMILES): COc1cccc(OC)c1C=NNC(=N)N (as salt: salt) [1:11, N-(2,6-Dimethoxybenzylideneamino)guanidine]
melting point: 158 to 160 °C

Structure (SMILES): N=C(N)NN=Cc1c(Br)cccc1Br [1:6, N-(2,6-Dibromobenzylideneamino)guanidine]
Ki [1]: 29.6 µM | Ki [2]: 22.7 µM | Ki [3]: 0.1 µM | Ki (MC1 receptor): 0.8 µM

Structure (SMILES): N=C(N)N/N=C/c1c(Cl)cccc1Cl [Guanobenz, Guanabenz, reference compound]
Affinity for MC-receptors, Ki, MC5 [1]: nb | Affinity for MC-receptors, Ki, MC3 [2]: nb | affinity to the melanocortin receptors (melanocortin receptors): no affinity | Affinity for MC-receptors, Ki, MC4 [3]: nb | Affinity for MC-receptors, Ki, MC1 (MC1 receptor): nb

Structure (SMILES): N=C(N)NN=Cc1c(Br)cccc1Br (as salt: HCl) [1:6, N-(2,6-Dibromobenzylideneamino)guanidine]
melting point: 178 to 183 °C

Second part, the compound after the results:

melting point: 202 to 207 °C
Structure (SMILES): N=C(N)NN=Cc1ccc(Br)cc1I (as salt: salt) [1:13, N-(4-Bromo-2-iodobenzylideneamino)guanidine]

melting point: 211 to 212 °C
Structure (SMILES): N=C(N)NN=Cc1cc(F)ccc1F (as salt: salt) [1:10, N-(2,5-Difluorobenzylideneamino)guanidine]

melting point: 236 to 239 °C
Structure (SMILES): N=C(N)NN=Cc1ccc(I)cc1Br (as salt: HCl) [1:9, N-(2-Bromo-4-Iodobenzylideneamino)guanidine]

melting point: 92 to 98 °C
Structure (SMILES): CCOc1cc(C=NNC(=N)N)c([N+](=O)[O-])c(C(F)(F)F)c1 (as salt: HCl) [1:5, N-(5-Ethoxy-2-Nitro-3-Trifluoromethylbenzylideneamino)guanidine]

melting point: 231 to 232.5 °C
Structure (SMILES): N=C(N)NN=Cc1cccc(Cl)c1I (as salt: salt) [1:1, N-(3-Chloro-2-Iodobenzylideneamino)guanidine]

melting point: 258 to 262 °C
Structure (SMILES): N=C(N)NN=Cc1ccc([N+](=O)[O-])c(Cl)c1Cl (as salt: HCl) [1:4, N-(2,3-Dichloro-4-Nitrobenzylideneamino)guanidine]

melting point: 223 to 224.5 °C
Structure (SMILES): N=C(N)NN=Cc1cccc(O)c1O (as salt: salt) [1:12, N-(2,3-Dihydroxybenzylideneamino)guanidine]

Ki [1]: 10.7 µM | Ki [2]: 10.1 µM | Ki [3]: 12.2 µM | Ki (MC1 receptor): 3.6 µM
Structure (SMILES): N=C(N)NN=Cc1ccc([N+](=O)[O-])c(Cl)c1Cl [1:4, N-(2,3-Dichloro-4-Nitrobenzylideneamino)guanidine]
